From patent US6392082B1, “Triazole derivatives having antifungal activity” (Sankyo Company, Limited, priority 1999, dated 2002)
≈ marks a conversion by molar mass, not a printed value. Read-outs that look alike come from different tables or passages of the source.

Legend:
[1] = system: Canadida albicans ATCC 64550; experiment: In vitro antifungal activity, MIC by broth microdilution (Candida species); format: cell-based; details: ATCC64550, lowest concentration causing at least 80% growth inhibition, RPMI1640 pH 7.0, 35° C., 24-72 hours, read-out: MIC value C.a. (1)
Description: (§1) The antifungal activities of test compounds were assessed according to their minimum inhibitory concentrations (MICs) which were measured by the methods described below.
(§2) 1(i) Measurement Method for Candida Species
(§3) A modified version of the procedure described in Japanese Journal of Medical Mycology, 36, 62 (1995) was used, MICs being determined by the broth microdilution method. Each test compound was dissolved in dimethyl sulfoxide (DMSO). Serial two-fold dilutions of each compound were prepared with DMSO and then final dilutions were prepared with RPMI1640 medium (product of Dainippon Pharmaceutical Co., Ltd.) which was buffered to pH 7.0 with 0.165 M 3-(morpholino)propanesulfonic acid (MOPS). […] Colonies of the test fungi were suspended in physiological saline followed by adjustment to 5.0×10^2 to 2.5×10^3 cells/ml with RPM11640 medium which was buffered to pH 7.0 with 0.165 M MOPS. 100 μl of the fungal suspension were added to each of the wells of microtitre plates and then 100 μl of each diluted test compound were added to one of said wells and mixed with the fungal suspension therein, before incubating at 35° C. for 24-72 hours. […] The MICs were defined as the lowest compound concentrations causing at least 80% growth inhibition when compared with the control.
b) C.a. (1): Canadida albicans ATCC 64550.

[2] = system: Canadida albicans TIMM 3164; experiment: as above; format: cell-based; details: TIMM3164, lowest concentration causing at least 80% growth inhibition, RPMI1640 pH 7.0, 35° C., 24-72 hours, read-out: MIC value C.a. (2)
Description: as §1, §2, §3
c) C.a. (2): Canadida albicans TIMM 3164.

[3] = system: Canadida albicans TIMM 3165; experiment: as above; format: cell-based; details: TIMM3165, lowest concentration causing at least 80% growth inhibition, RPMI1640 pH 7.0, 35° C., 24-72 hours, read-out: MIC value C.a. (3)
Description: as §1, §2, §3
d) C.a. (3): Canadida albicans TIMM 3165.

[4] = system: Cryptococcus neoformans TIMM 0362; experiment: In vitro antifungal activity, MIC by broth microdilution (Cryptococcus neoformans); format: cell-based; details: TIMM0362, lowest concentration causing at least 50% growth inhibition (absorbance 485 nm), yeast nitrogen base pH 7.0, 35° C., 48-72 hours, read-out: MIC value C.n.
Description: as §1
1(ii) Measurement Method for Cryptococcus neoformans
A modified version of the Broth Dilution Antifuinal Susceptibility Testing of Yeast; Approved Standard M27-A (Vol. 17, No. 9, June 1997, NCCLS) was used, MICs being determined by the broth microdilution method. Each test compound was dissolved in DMSO. Serial two-fold dilutions of each compound were prepared with DMSO and final dilutions were prepared with yeast nitrogen base medium (product of Difco Laboratories) buffered to pH 7.0 with 0.165 M MOPS. […] Colonies of the test fungi were suspended in physiological saline followed by adjustment to 5.0×10^3 to 2.5×10^4 cells/ml with yeast nitrogen base medium buffered to pH 7.0 with 0.165 M MOPS. 100 μl of the fungal suspension were added to each of the wells of microtitre plates and then 100 μl of each diluted test compound were added to one of said wells and mixed with the fungal suspension therein, before incubating at 35° C. for 48-72 hours. […] The MICs were defined as the lowest compound concentrations causing at least 50% growth inhibition when compared with the control as measured by light absorbance at 485 nm.
e) C.n.: Cryptococcus neoformans TIMM 0362.

[5] = system: Aspergillus fumigatus SANK 10569; experiment: In vitro antifungal activity, MIC by broth microdilution (Aspergillus species); format: cell-based; details: SANK10569, lowest concentration causing at least 80% growth inhibition, RPMI1640 pH 7.0, 30° C., 24-72 hours, read-out: MIC value A.f.
Description: The antifungal activities of test compounds were assessed according to their minimum inhibitory concentrations (MICs) which were measured by the methods described below. 1(iii) Measurement Method for Aspergillus Species A modified version of the protocol in Antimicrob. Agents Chemother., 39, 314 (1995) was used, MICs being determined by the broth microdilution method. Test compounds were dissolved in dimethyl sulfoxide (DMSO). Serial two-fold dilutions of each compound were prepared with DMSO and then final dilutions were prepared with RPMI1640 medium (product of Dainippon Pharmaceutical Co., Ltd.) buffered to pH 7.0 with 0.165 M MOPS.

[6] = Acid stability test (half-life in 0.01 N HCl); format: physicochemical; details: 0.01 N HCl (pH 2.0), initial 50 μg/ml, 37° C., HPLC, read-out: t1/2, stability in acidic solution
Description: A small amount of the solution was taken from the reaction solution at predetermined time intervals and the reaction was stopped in these samples by neutralizing with an aqueous sodium hydroxide solution. Quantitative determination of the residual rate of the test compound in the solution was determined by HPLC.
The half-life (t½) of the test compound in 0.01 N HCl was determined according to the following equation using the degradation rate constant kdeg which was determined by semi-logarithmic regression analysis of the residual rate in the solution.

[7] = Oral absorption rate (bioavailability) in SD rats; format: in vivo; details: rat, blood; fasted SD rats; oral 20 mg/kg vs intravenous 2 mg/kg in PEG 400; AUCpo(0-48 h)/AUCiv(0-∞), dose-corrected; read-out: BA (bioavailability)
Description: A test compound in polyethylene glycol 400 (PEG 400) was administered either orally (4 animals) or intravenously into the caudal vein (3 animals) of SD rats (age 7 weeks) which had fasted overnight. The oral dose of the test compound was 20 mg per kg of rat body weight. The intravenous dose of the test compound injected into the caudal vein was 2 mg per kg of rat body weight. The amount of PEG 400 used was 1 ml per kg of rat body weight for both oral and intravenous administration. The bioavailability (BA) values were calculated according to the following equation using the integrated values of the blood concentration of the test compound up to 48 hours after oral administration [AUCpo(0-48 h)], and the integrated values of the blood concentration extrapolated from 0 to infinite time after intravenous administration into the caudal vein [AUCiv(0-∞)].
BA(%)={[(AUCpo(0-48))/(dosepo)]/[(AUCiv(0-∞))/(doseiv)]}×100
The larger the value of BA, the higher the oral absorption rate. The results for the compound of formula (Ib) of the present invention and those for Comparative Compounds A, B and C are shove in Table 3.

[8] = 0.01 N hydrochloric acid with 30% acetonitrile

SMILES	MIC [1] [µg/mL]	MIC [2] [µg/mL]	MIC [3] [µg/mL]	MIC [4] [µg/mL]	MIC [5] [µg/mL]	half-life at 50 μg/ml [6, 8] [min]	bioavailability [7] [%]	half-life at 50 μg/ml ([6]; buffer, 30% acetonitrile) [min]
C[C@@H](S[C@H]1CO[C@H](/C=C/C=C/c2ccc(C#N)cc2)OC1)[C@](O)(Cn1cncn1)c1ccc(F)cc1F [Comparative Compound (A), (2R,3R)-3-[[trans-2-[(1E,3E)-4-(4-Cyanophenyl)-1,3-butadien-1-yl]-1,3-dioxan-5-yl]thio]-2-(2,4-difluorophenyl)-1-(1H-1,2,4-triazol-1yl)-2-butanol]	0.5 to 1 (≈ 0.953 to 1.91 µM)	0.016 (≈ 0.0305 µM)	0.125 to 0.25 (≈ 0.238 to 0.477 µM)	0.016 (≈ 0.0305 µM)	0.031 (≈ 0.0591 µM)	3.12	50.7	–
C[C@@H](S[C@H]1CO[C@H](/C=C/C=C/c2ccc(F)cc2F)OC1)[C@](O)(Cn1cncn1)c1ccc(F)cc1F [Comparative Compound (B)]	0.5 (≈ 0.934 µM)	0.031 to 0.063 (≈ 0.0579 to 0.118 µM)	0.125 to 0.25 (≈ 0.233 to 0.467 µM)	≤ 0.008	0.125 (≈ 0.233 µM)	1.54	6.24	–
CC(C[C@H]1CO[C@H](/C=C/C=C/c2ccc(C#N)cc2F)OC1)C(O)(Cn1cncn1)c1ccc(F)cc1F (some centres unmarked) [Comparative Compound (C)]	–	–	–	–	–	2.42	57.8	–
C[C@@H](S[C@H]1CO[C@H](/C=C/C=C/c2ccc(C#N)cc2F)OC1)[C@](O)(Cn1cncn1)c1ccc(F)cc1F [Compound (Ib), (2R,3R)-3-[[trans-2-[(1E,3E)-4-(4-Cyano-2-fluorophenyl)-1,3-butadien-1-yl]-1,3-dioxan-5-yl]thio]-2-(2,4-difluorophenyl)-1-(1H-1,2,4-triazol-1-yl)-2-butanol]	0.25 (≈ 0.461 µM)	≤ 0.008	0.063 (≈ 0.116 µM)	≤ 0.008	0.031 (≈ 0.0571 µM)	–	123	6.4
